According to US9976141B2, “Compositions and methods for inhibiting gene expression of Hif2alpha” (Arrowhead Madison Inc., priority 2015, dated 2018):

Test system: human (tumor) Hif2α (EPAS1) mRNA
Assay: Hif2α knockdown in orthotopic RCC tumor bearing mice, single injection of RNAi trigger-delivery polymer conjugate, RT-qPCR (Table 7)
Assay type: in vivo
Conditions: single tail vein injection, relative to isotonic glucose
Outline: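 A single intravenous dose of Hif2α RNAi trigger–delivery polymer conjugate, or isotonic glucose vehicle, was given to nude mice with subcapsular A498-SEAP renal tumours (about 5–6 weeks old). At the indicated time, tumour RNA was assayed by biplex TaqMan qPCR against CycA, and relative expression was calculated by ΔΔCT versus vehicle.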

[1] = RNAi trigger 50 μg, polymer 064 125 μg

Row | Substance | Relative Expression day 4 (Hif2α mRNA in kidney tumor) [1] | Relative Expression day 4 (Hif2α mRNA in kidney tumor) (RNAi trigger 80 μg, polymer 126 400 μg)
1 | AD02858 (antisense UUUCAUGAAAUCGUUACGUUG; sense ACGUAACGAUUUCAUGAAAT; Hif2alpha RNAi agent antisense strand; modified_base 2,3,4,8,10,14 /mod_base = “2′-deoxy-2′-fluoro corresponding nucleoside”; modified_base 1,5,6,7,9,11,12,13,15,16,17,18,19,20,21 /mod_base = “2′-O-methyl corresponding nucleoside”; modified_base 2,3,20,21 /mod_base = “5′-phosphorothioate corresponding nucleotide”; Hif2alpha RNAi agent sense strand; modified_base 7,8,9 /mod_base = “2′-deoxy-2′-fluoro corresponding nucleoside”; modified_base 1,2,3,4,5,6,10,11,12,13,14,15,16,17,18,19 /mod_base = “2′-O-methyl corresponding nucleoside”; modified_base 20 /mod_base = “3′-3′-linked nucleotide”; modi) | 0.192 | –
2 | AD01257 (antisense TUUCAUGAAAUCGUUACGUTT; sense ACGUAACGAUUUCAUGAAAT; Hif2alpha RNAi agent antisense strand; modified_base 2,4,6,8,10,12,14,16,18 /mod_base = “2′-deoxy-2′-fluoro corresponding nucleoside”; modified_base 3,5,7,11,13,15,17,19 /mod_base = “2′-O-methyl corresponding nucleoside”; modified_base 9 /mod_base = “2′-3′ seco corresponding nucleotide”; modified_base 21 /mod_base = “5′-phosphorothioate corresponding nucleotide”; Hif2alpha RNAi agent sense strand; modified_base 1,3,5,7,9,11,13,15,17,19 /mod_base = “2′-deoxy-2′-fluoro corresponding nucleoside”; modified_base 2,4,6,8,10,12,14,16,18 /mod_base = “2′-O-methyl corresponding nucleoside”; modified_b) | – | 0.24
3 | AD02875 (antisense AUUCAUGAAAUCGUUACGUUG; sense UAUACGUAACGAUUUCAUGAAUT; Hif2alpha RNAi agent antisense strand; modified_base 2,4,6,8,10,14,16,18 /mod_base = “2′-deoxy-2′-fluoro corresponding nucleoside”; modified_base 1,3,5,7,9,11,12,13,15,17,19,20,21 /mod_base = “2′-O-methyl corresponding nucleoside”; modified_base 2,3,20,21 /mod_base = “5′-phosphorothioate corresponding nucleotide”; Hif2alpha RNAi agent sense strand; modified_base 2 modified base = “2′-hydroxy corresponding nucleoside”; modified_base 10,11,12,16 /mod_base = “2′-deoxy-2′-fluoro corresponding nucleoside”; modified_base 1,3,4,5,6,7,8,9,13,14,15,17,18,19,20,21,22 /mod_base = “2′-O-methyl correspon) | 0.101 | –
